Structures can show the parent of a compound that is named as a salt. Where two headings read alike, the source gives them in different places.
Assays:
[1] = for Amount of acid addition salts of clopidogrel / Amount of hydrolyzed impurities / Amount of levorotatory isomers / Water content: 60±2° C., 75±5% relative humidity; for water content / hygroscopicity under accelerated condition: 60° C. and 75% relative humidity for a period of over 28 days
Procedure: (§1) Condition A: For the Measurement of the Assay of Acid Addition Salt of Clopidogrel
(§2) Column: Kromasil C18, 5 μm (250 mm×4.6 mm)
(§3) Mobile phase: Na2HPO4—NaH2PO4 buffer solution:TBF:CH3CN=5:2:3 (v/v)
Condition B: For the Measurement of the Amount of Hydrolyzed Impurities of Acid Addition Salt of Clopidogrel
Column: Capcellpak C18 MG, 5 μm (250 mm×4.6 mm)
Mobile phase: KH2PO4 buffer solution/CH3CN (70/30):KH2PO4 buffer solution/CH3CN (30/70)=0:100→[…] (v/v, gradient elution)
Condition C: For the Measurement of the Optical Purity of Acid Addition Salt of Clopidogrel
Column: Chiralpak AD, 5 μm (250 mm×4.6 mm)
Mobile phase: n-hexane:isopropanol=90:10 (v/v)
The camphorsulfonate polymorphic form A1 obtained in Example 1, the camphorsulfonate polymorphic form B1 obtained in Example 2, the hydrogen sulfate obtained in Comparative Example 1 and the benzenesulfonate obtained in Comparative Example 2 were each subjected to a condition of 60±2° C. and 75±5% relative humidity for a period of 28 days to test their stabilities. The changes of the assay of the acid addition salts of clopidogrel, and the amounts of hydrolyzed impurities and levorotatory isomers thereof and the water content thereof were measured at 7, 14, 21 and 28 days relative to that of the initial day (0) using HPLC. The results are shown in Tables 6 to 9 and FIGS. 12 to 15, respectively.

physchem = experiment: physchem
Excerpt: as §1, §2, §3
The camphorsulfonate polymorphic form A1 obtained in Example 1, the camphorsulfonate polymorphic form B1 obtained in Example 2, the hydrogen sulfate obtained in Comparative Example 1 and the benzenesulfonate obtained in Comparative Example 2 were each dissolved in unionized water until saturated. The amounts of clopidogrel in the resulting solutions were measured under HPLC condition A, and the results are shown in Table 5.

[2] = dissolved in unionized water until saturated, HPLC condition A

| Molecule | Amount of acid addition salts of clopidogrel ([1]; 0 day) [%] | Amount of hydrolyzed impurities ([1]; 0 day) [%] | Amount of levorotatory isomers ([1]; 0 day) [%] | Water content ([1]; 0 day) [%] | Amount of acid addition salts of clopidogrel ([1]; 7 days) [%] | Amount of hydrolyzed impurities ([1]; 7 days) [%] | Amount of levorotatory isomers ([1]; 7 days) [%] | Water content ([1]; 7 days) [%] | Amount of acid addition salts of clopidogrel ([1]; 14 days) [%] | Amount of hydrolyzed impurities ([1]; 14 days) [%] | Amount of levorotatory isomers ([1]; 14 days) [%] | Water content ([1]; 14 days) [%] | Water content ([1]; 21 days) [%] | Amount of acid addition salts of clopidogrel ([1]; 28 days) [%] | Amount of hydrolyzed impurities ([1]; 28 days) [%] | Amount of levorotatory isomers ([1]; 28 days) [%] | Water content ([1]; 28 days) [%] | Water-solubility (physchem; [2]) | water content / hygroscopicity under accelerated condition [1] | other results |
| --- | --- | --- | --- | --- | --- | --- | --- | --- | --- | --- | --- | --- | --- | --- | --- | --- | --- | --- | --- | --- |
| COC(=O)[C@H](c1ccccc1Cl)N1CCc2sccc2C1 [Hydrogen sulfate, Clopidogrel hydrogen sulfate, reference compound] | 99.2 | 0.03 | 0.01 | 0.2 | 98.8 | 0.72 | 0.05 | 0.3 | 97.5 | 2.15 | 0.19 | 0.8 | 2.8 | 80.5 | 16.49 | 1.53 | 7.3 | 7.42 mg/ml, as clopidogrel | – | – |
| COC(=O)[C@H](c1ccccc1Cl)N1CCc2sccc2C1 [Camphorsulfonate (polymorphic form B1), clopidogrel (+)-(1S)-camphor-10-sulfonate] | 99.6 | 0.01 | 0.01 | 0.1 | 99.2 | 0.01 | 0.01 | 0.1 | 99.9 | 0.02 | 0.02 | 0.1 | 0.1 | 99.3 | 0.03 | 0.03 | 0.1 | 3.98 mg/ml, as clopidogrel | almost maintain their original water contents | Water-solubility (physchem; measured in a saturated aqueous solution): around 4.0 mg/ml |
| COC(=O)C(c1ccccc1Cl)N1CCc2sccc2C1 (stereo in doubt) [Camphorsulfonate (polymorphic form A1), clopidogrel (−)-(1R)-camphor-10-sulfonate] | 99.2 | 0.01 | 0.02 | 0.0 | 99.1 | 0.08 | 0.02 | 0.1 | 99.6 | 0.15 | 0.02 | 0.0 | 0.0 | 99.1 | 0.17 | 0.02 | 0.1 | 4.04 mg/ml, as clopidogrel | almost maintain their original water contents | solubility (physchem; unionized water, water, thermodynamic from solid): ~4000 µg/mL |
| Clopidogrel benzenesulfonate [reference compound] | 99.3 | 0.01 | 0.01 | 0.1 | 93.9 | 2.79 | 0.81 | 6.4 | 80.5 | 8.56 | 2.49 | 7.3 | 9.2 | 61.7 | 25.33 | 4.79 | 9.4 | 4.74 mg/ml, as clopidogrel | – | – |
